# PubChem BioAssay AID1963831 (Molecular Pharmacology Branch, DTP, NCI, 2024)
# pIC50: −log10 of the molar value. Where “and” joins values, the source holds several entries; their conditions need not be identical. Identical values can stand only once.
# System: 889142-216-R-J1-PDC complex spheroid viability
# Test: Anticancer human tumor 889142-216-R-J1-PDC patient-derived bladder carcinoma cell line growth inhibition [POLQ]
# Conditions: for viability, T/C: stronger effect = lower value
# Procedure: Multicellular complex tumor spheroid response to Polymerase (POL) inhibitors (novobiocin, ART-558, RP6685) in combination with a variety of drugs and investigational agents in selected tumor cell lines
# The POL inhibitors (novobiocin, ART-558, and RP6685) were evaluated both individually and in combination with standard of care and investigational anticancer small molecules within a complex spheroid model of solid tumors. . Complex spheroids include a stromal component modeled by human endothelial cells (HUVEC) and fibroblasts modeled by human mesenchymal stem cells (MSCs). The concentration ranges selected for each drug and investigational agent were based upon clinically achievable concentrations if the clinical Cmax of the agent was known.
# Compounds. The drugs and investigational agents: novobiocin (NSC847541), ART-558 (NSC835418), RP-6685 (NSC848927), peposertib (NSC802822), ceralasertib (NSC780249), elimusertib (NSC800525), camonsertib (NSC841442), AZD-1390 (NSC803789), olaparib (NSC753686), talazoparib (NSC767125), rucaparib (NSC756644), sotorasib (NSC818433), MRTX-1133 (NSC836407), SN-38 (NSC673596), topotecan (NSC609699), epotoside (NSC141540), doxorubicin (NSC123127), gemcitabine (NSC613327), 5-fluorouracil (NSC19893), paclitaxel (NSC125973), vemurafenib (NSC761431), MSA-2 (NSC828583), SN-011 (NSC837082), adavosertib (NSC754352), prexasertib (NSC758257), carboplatin (NSC241240) and oxaliplatin (NSC266046), were obtained from the National Cancer Institute (NCI) Developmental Therapeutics Program Chemical Repository (21). The FDA-approved anticancer drug set is available from the Developmental Therapeutics Program at https://dtp.cancer.gov/organization/dscb/obtaining/. […] The stock solutions were prepared in dimethyl sulfoxide (DMSO, Sigma-Aldrich, St. Louis, MO, cat. D2650), except for the platinum compounds which were prepared in saline (Quality Biological, Gaithersburg, MD, cat. 114-055-101), at 800-fold the tested concentration and stored at -70 degrees C prior to their use. All drugs and investigational agents were tested over a range starting from a high concentration at or near the clinical Cmax and decreasing in half-log increments. If the clinical Cmax for an agent had not been determined, the highest concentration tested was 10 microM, except for SN-38, which was tested at a high concentration of 1 microM.
# Cell Culture. All cells were maintained in an incubator at 37 degrees C and 5% CO2 with 95% humidity. The PDC lines were cultured according to standard operating procedures established by the NCI PDMR (https://pdmr.cancer.gov). Table 3 of the manuscript, lists the cell lines along with the number of the three cell types plated to form the mct-spheroids and media for tumor cell growth. After thawing, all PDC lines, except 997537-175-T-J1-PDC and 415267-285-R-J2-PDC, were cultured in Matrigel-coated flasks prepared with a working solution of 1X Ham's F-12 nutrient mix, without supplementation (Thermo Fisher Scientific, cat. 11765054), 100 U/mL penicillin-streptomycin (Thermo Fisher Scientific, cat. 15140122), and 2.5% Matrigel (Corning Inc., Corning, NY, cat. 354248) for the first three passages. The two PDC lines 997537-175-T-J1-PDC and 415267-285-R-J2-PDC were cultured on uncoated flasks. The 857933-349-R-J2-PDC line was cultured in 6C/Colon 1B media containing advanced DMEM/F-12 (Thermo Fisher Scientific, cat. 12634028), 10 mM HEPES (Thermo Fisher Scientific, cat. 15630080), 1X GlutaMAX supplement (Thermo Fisher Scientific, cat. 35050061), 0.1 mg/mL primocin (InvivoGen, San Diego, CA, cat. ant-pm-2), 10% defined fetal bovine serum, heat inactivated (HyClone Laboratories Inc., Logan, UT, cat. SH30070.03HI), 50% L-WRN conditioned media (ATCC, cat. CRL-3276), 1.25 mM N-Acetyl-L-cysteine (Sigma-Aldrich, cat. A9165), 10 mM nicotinamide (Sigma-Aldrich, cat. N0636), 1X B-27 supplement (Thermo Fisher Scientific, cat. 17504044), 1X N-2 supplement (Thermo Fisher Scientific, cat. […]
# [1] = curve of first compound, second compound 0.0316 µM
# [2] = curve of first compound, second compound 0.1 µM
# [3] = curve of first compound, second compound 0.316 µM
# [4] = curve of first compound, second compound 1 µM
# [5] = curve of first compound, second compound 3.16 µM
# [6] = curve of first compound, second compound 10 µM
# 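Note: spheroids exposed to compounds for seven days.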
# 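Throughout, for viability, T/C: 100% = DMSO vehicle control viability.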
structure (smiles),measurement,setting,value
CC(=O)O[C@H]1C(=O)[C@@]2(C)[C@H]([C@H](OC(=O)c3ccccc3)[C@]3(O)C[C@H](OC(=O)[C@H](O)[C@@H](NC(=O)c4ccccc4)c4ccccc4)C(C)=C1C3(C)C)[C@]1(OC(C)=O)CO[C@@H]1C[C@@H]2O + Cc1cccc(N(C)C(=O)C2C(O)CCN2c2nc(C)cc(C(F)(F)F)c2C#N)c1,pIC50,[1],< 5.52
same,pIC50,[2],6.46
same,pIC50,[3],< 5.52
same,pIC50,[4],< 5.52
same,pIC50,[5],8.02
same,pIC50,[6],> 8.02
same,"viability, T/C","second compound 0.0316 µM, first compound 0.00949 µM",50.8%
same,"viability, T/C","second compound 0.0316 µM, first compound 0.03 µM",45.5%
same,"viability, T/C","second compound 0.0316 µM, first compound 0.0949 µM",57.5%
same,"viability, T/C","second compound 0.0316 µM, first compound 0.3 µM",47.5%
same,"viability, T/C","second compound 0.0316 µM, first compound 0.949 µM",53.1%
same,"viability, T/C","second compound 0.0316 µM, first compound 3 µM",57.5%
same,"viability, T/C","second compound 0.1 µM, first compound 0.00949 µM",51.4%
same,"viability, T/C","second compound 0.1 µM, first compound 0.03 µM",56.5%
same,"viability, T/C","second compound 0.1 µM, first compound 0.0949 µM",42.7%
same,"viability, T/C","second compound 0.1 µM, first compound 0.3 µM",44.4%
same,"viability, T/C","second compound 0.1 µM, first compound 0.949 µM",59%
same,"viability, T/C","second compound 0.1 µM, first compound 3 µM",47.3%
same,"viability, T/C","second compound 0.316 µM, first compound 0.00949 µM",56.7%
same,"viability, T/C","second compound 0.316 µM, first compound 0.03 µM",50.6%
same,"viability, T/C","second compound 0.316 µM, first compound 0.0949 µM",46.8%
same,"viability, T/C","second compound 0.316 µM, first compound 0.3 µM",49.1%
same,"viability, T/C","second compound 0.316 µM, first compound 0.949 µM",59.4%
same,"viability, T/C","second compound 0.316 µM, first compound 3 µM",50.3%
same,"viability, T/C","second compound 1 µM, first compound 0.00949 µM",52%
same,"viability, T/C","second compound 1 µM, first compound 0.03 µM",54%
same,"viability, T/C","second compound 1 µM, first compound 0.0949 µM",48.8%
same,"viability, T/C","second compound 1 µM, first compound 0.3 µM",49.5%
same,"viability, T/C","second compound 1 µM, first compound 0.949 µM",52.2%
same,"viability, T/C","second compound 1 µM, first compound 3 µM",53.4%
same,"viability, T/C","second compound 3.16 µM, first compound 0.00949 µM",49.8%
same,"viability, T/C","second compound 3.16 µM, first compound 0.03 µM",48.4%
same,"viability, T/C","second compound 3.16 µM, first compound 0.0949 µM",46.7%
same,"viability, T/C","second compound 3.16 µM, first compound 0.3 µM",56.9%
same,"viability, T/C","second compound 3.16 µM, first compound 0.949 µM",48.3%
same,"viability, T/C","second compound 3.16 µM, first compound 3 µM",46%
same,"viability, T/C","second compound 10 µM, first compound 0.00949 µM",50.5%
same,"viability, T/C","second compound 10 µM, first compound 0.03 µM",45.4%
same,"viability, T/C","second compound 10 µM, first compound 0.0949 µM",46.9%
same,"viability, T/C","second compound 10 µM, first compound 0.3 µM",48.2%
same,"viability, T/C","second compound 10 µM, first compound 0.949 µM",44%
same,"viability, T/C","second compound 10 µM, first compound 3 µM",52.7%
CCc1cc2c(N3CCc4c(cc(Cn5ccnc5)cc4-c4cn(C)nc4C(F)(F)F)C3=O)cc(C)nc2c(OC)n1,"viability, T/C",compound 0.0316 µM,103% and 102% and 111%
same,"viability, T/C",compound 0.1 µM,116% and 114% and 108%
same,"viability, T/C",compound 0.316 µM,123% and 119% (2×)
same,"viability, T/C",compound 1 µM,132% and 112% and 96.6%
same,"viability, T/C",compound 3.16 µM,118% and 106% and 84.9%
same,"viability, T/C",compound 10 µM,84.3% and 82.2% and 71.1%
same,pIC50,curve of compound,< 5.00
Cn1ncnc1[C@H]1c2n[nH]c(=O)c3cc(F)cc(c23)N[C@@H]1c1ccc(F)cc1 + COC1C(OC(N)=O)C(O)C(Oc2ccc3c(O)c(NC(=O)c4ccc(O)c(CC=C(C)C)c4)c(=O)oc3c2C)OC1(C)C,pIC50,[1],< 7.00
same,pIC50,[2],< 7.00
same,pIC50,[3],< 7.00
same,pIC50,[4],< 7.00
same,pIC50,[5],< 7.00
same,pIC50,[6],< 7.00
same,"viability, T/C","second compound 0.0316 µM, first compound 0.000316 µM",97%
same,"viability, T/C","second compound 0.0316 µM, first compound 0.001 µM",95%
same,"viability, T/C","second compound 0.0316 µM, first compound 0.00316 µM",93.1%
same,"viability, T/C","second compound 0.0316 µM, first compound 0.01 µM",80.6%
same,"viability, T/C","second compound 0.0316 µM, first compound 0.0316 µM",73.3%
same,"viability, T/C","second compound 0.0316 µM, first compound 0.1 µM",76.8%
same,"viability, T/C","second compound 0.1 µM, first compound 0.000316 µM",108%
same,"viability, T/C","second compound 0.1 µM, first compound 0.001 µM",92.7%
same,"viability, T/C","second compound 0.1 µM, first compound 0.00316 µM",74.2%
same,"viability, T/C","second compound 0.1 µM, first compound 0.01 µM",73.7%
same,"viability, T/C","second compound 0.1 µM, first compound 0.0316 µM",73.4%
same,"viability, T/C","second compound 0.1 µM, first compound 0.1 µM",72.5%
same,"viability, T/C","second compound 0.316 µM, first compound 0.000316 µM",90.8%
same,"viability, T/C","second compound 0.316 µM, first compound 0.001 µM",87.8%
same,"viability, T/C","second compound 0.316 µM, first compound 0.00316 µM",90.9%
same,"viability, T/C","second compound 0.316 µM, first compound 0.01 µM",91.9%
same,"viability, T/C","second compound 0.316 µM, first compound 0.0316 µM",85%
same,"viability, T/C","second compound 0.316 µM, first compound 0.1 µM",66.6%
same,"viability, T/C","second compound 1 µM, first compound 0.000316 µM",88.9%
same,"viability, T/C","second compound 1 µM, first compound 0.001 µM",77.4%
same,"viability, T/C","second compound 1 µM, first compound 0.00316 µM",89.2%
same,"viability, T/C","second compound 1 µM, first compound 0.01 µM",117%
same,"viability, T/C","second compound 1 µM, first compound 0.0316 µM",85%
same,"viability, T/C","second compound 1 µM, first compound 0.1 µM",79.6%
same,"viability, T/C","second compound 3.16 µM, first compound 0.000316 µM",97.9%
same,"viability, T/C","second compound 3.16 µM, first compound 0.001 µM",100%
same,"viability, T/C","second compound 3.16 µM, first compound 0.00316 µM",103%
same,"viability, T/C","second compound 3.16 µM, first compound 0.01 µM",83.9%
same,"viability, T/C","second compound 3.16 µM, first compound 0.0316 µM",71.5%
same,"viability, T/C","second compound 3.16 µM, first compound 0.1 µM",74.1%
same,"viability, T/C","second compound 10 µM, first compound 0.000316 µM",72.9%
same,"viability, T/C","second compound 10 µM, first compound 0.001 µM",115%
same,"viability, T/C","second compound 10 µM, first compound 0.00316 µM",89.8%
same,"viability, T/C","second compound 10 µM, first compound 0.01 µM",119%
same,"viability, T/C","second compound 10 µM, first compound 0.0316 µM",80.4%
same,"viability, T/C","second compound 10 µM, first compound 0.1 µM",59.6%
